Test results taken from patent publication US20260034222A1, “HYDROGEL COMPOSITION FOR THE TREATMENT OF PERITONEAL DISEASES” (UPyTher B.V., priority 2023, published 2026).
Each block holds one molecule with its values, some of them ahead of it.

Experiments:
[1] = TLR-agonist release from UPy-PEG hydrogels; type: physicochemical; settings: Polymer 6, 6 and 10 wt %, 0.5 mM MEDI9197 (FIG. 11B)
Experimental: The TLR-agonist resiquimod (synonym R848) was loaded from a stock solution (50 mM in DMSO) to 1.27 mM in the hydrogel. The TLR-agonist telratolimod (synonym MEDI9197) was loaded from a stock solution (10 mM in DMSO) to 0.5 mM in the hydrogel.
The drug loaded solution (100 μL) was transferred to a Millicell insert, which was placed in a 24-wells plate filled with PBS pH 7.4 (700 μL). At set time points the PBS was refreshed and the removed PBS was analyzed for R848 content UV absorbance at 320 nm. For MEDI9197, PBS was substituted for a volatile ammonium carbonate buffer and a HPLC-MS method was used. Release experiments were performed with n=3.

[2] = in vivo; cited from earlier work
patients = settings: dosing regimens of 35 mg/m2; cited from earlier work
[3] = Mitomycin C release from UPy-PEG hydrogels; type: physicochemical
Experimental: (§1) Mitomycin C was loaded from a stock solution (52 mM in DMSO) to 0.52 mM in the hydrogel solution. The drug loaded solution (100 μL) was transferred to a Millicell insert, which was placed in a 24-wells plate filled with PBS pH 7.4 (600 μL). At set time points the PBS was refreshed and the removed PBS was analyzed for drug content UV absorbance at 363 nm. Release experiments were performed with n=3.

[4] = tested on: mice with peritoneal metastases; settings: intraperitoneal lavage for 90 minutes versus 60 minutes; cited from earlier work
[5] = Drug release from thermoreversible RTGel hydrogel; type: physicochemical; settings: 0.4 mM, PBS pH 7.4 (FIG. 10)
Experimental: RTGel hydrogel was formulated using the following ingredients and quantities:
Mitomycin C and chol-MMC were loaded from a stock solution (30 mM in DMSO) to 0.4 mM in the hydrogel solution. The drug loaded solution (100 μL) was cooled and transferred to a Millicell insert, which was placed in a 24-wells plate filled with PBS pH 7.4 (600 μL). At set time points the PBS was refreshed and the removed PBS was analyzed for drug content UV absorbance at 363 nm. Release experiments were performed with n=3.

tumor cell lines = settings: cited from earlier work
[6] = in words; cited from earlier work
[7] = Mitomycin C and VX970 combined release from hydrogel; type: physicochemical; settings: Polymer 7, 5 wt %, 12 μg/ml VX970 with 0.52 mM MMC (FIG. 7)
Experimental: as §1, with “C (MMC)” for “C”, “solution. VX970 was loaded from a stock solution (1.2 mg/ml in DMSO) to 12 μg/ml.” for “solution.”, “7.4 (700” for “7.4 (600”, “for MMC” for “for drug”, “content by” for “content”, “nm. For VX970, a HPLC-MS/MS method was used (Kiesel et al.).” for “nm.”

- release rate relative to comparator [1]: released slower than MMC
Structure (SMILES): CCCCCCCCCCCCCCCCCC(=O)NCCCCOn1c(CCCC)nc2c(N)nc3ccccc3c21 [MEDI9197, telratolimod]

Structure (SMILES): CO[C@@]12[C@H](COC(N)=O)C3=C(C(=O)C(C)=C(N)C3=O)N1C[C@@H]1N[C@@H]12 [Mitomycin C]
- half-life in the peritoneal cavity [2]: 1 to 1.5 h
- patients who developed severe bone marrow suppression (patients): 28%
- duration of sustained mitomycin C release ([3]; polymer 6, 6, 7, 8 wt %, 0.52 mM, PBS pH 7.4 (FIG. 6)): 1 to 2 days
- dependence of drug release on polymer density ([3]; polymer 6, 6, 7 or 8 wt %): not dependent on the polymer density
- effect of higher precursor pH on burst release ([3]; polymer 6, precursor pH 8.5, 9.0 or 9.5): did not give rise to an increased burst release
- survival [4]: better survival
- time of release from Pluronic-based RTGel hydrogel [5]: 1 to 2 days
- concentration required to kill 90% of the cells (tumor cell lines; exposure time more than 10 hours): 0.1 µg/mL
- concentration needed to kill 90% of the cells in culture (tumor cell lines; exposure time shorter than one hour): 5 µg/mL

- release rate relative to MMC [7]: released slower than MMC
Structure (SMILES): CNCc1ccc(-c2cc(-c3nc(-c4ccc(S(=O)(=O)C(C)C)cc4)cnc3N)on2)cc1 [VX-970, berzosertib]
- solubility in water [6]: insoluble in water

Structure (SMILES): CC(=O)O[C@@]12CO[C@@H]1C[C@H](O)[C@@]1(C)C(=O)[C@H](O)C3=C(C)[C@@H](OC(=O)[C@H](O)[C@@H](NC(=O)OC(C)(C)C)c4ccccc4)C[C@@](O)([C@@H](OC(=O)c4ccccc4)[C@H]21)C3(C)C [docetaxel]
- clearance from the peritoneal cavity [2]: cleared in less than day

Structure (SMILES): CC(=O)O[C@H]1C(=O)[C@@]2(C)[C@H]([C@H](OC(=O)c3ccccc3)[C@]3(O)C[C@H](OC(=O)[C@H](O)[C@@H](NC(=O)c4ccccc4)c4ccccc4)C(C)=C1C3(C)C)[C@]1(OC(C)=O)CO[C@@H]1C[C@@H]2O [paclitaxel]
- clearance from the peritoneal cavity [2]: cleared in less than day
